Data taken from patent publication US20030170245A1, “Activation of matriptase and diagnostic and therapeutic methods based thereon” (priority 2002, published 2003).

How the values were obtained:
[1] = tested on: matriptase; test: Induction of matriptase activation in A1N4 mammary epithelial cells (immunoblot of two-chain form with mAb M69); assay type: cell-based, human; settings: for induction of matriptase activation (two-chain form): A1N4 cells, qualitative; for concentration at which maximal activation of matriptase was achieved: intact A1N4 cells
Method: FIG. 22 LPA and S1P induce the activation of matriptase.
(§1) Immunoblotting analysis: Immunobloting was conducted as previously described. Proteins were separated by 10% SDS-PAGE, transferred overnight to nitrocellulose sheets (Schleicher & Schuell, Keene, N.H.) or polyvinylidene fluoride (PVDF) and subsequently probed with mAb, as indicated. Immuno-reactive polypeptides were visualized using peroxidase-labeled anti-rat immunoglobulin and the ECL detection system (NEN, Boston, Mass.).
Induction of matriptase activation in A1N4 mammary epithelial cells: To serum starve 184 A1N4 cells, the cells were plated at 50-60% confluence, and maintained for 48-72 hrs in medium containing 0.5% serum. The activation of matriptase was then induced by incubating the cells with Iscove's Modified Dulbecco's Medium (IMEM), containing serum, as indicated in the Figure legend. Cells were then scrapped in PBS, and pelleted by centrifigation with a 5 min spin (1500×g). The cell pellets were lysed on ice for 20 min in lysis buffer (1% TritonX-100 in phosphate buffered saline). Cellular debris were removed by centrifugation for 10 min at 14,000×g. Equal protein amounts, as determined by the BCA protein micro assay (Pierce), were resolved under non-reducing, non-boiled conditions, by sodium dodecyl sulfate-polyacrylamide gel electrophoresis (SDS-PAGE), and electroblotted onto PVDF membranes (Millipore).

[2] = tested on: A1N4 human mammary epithelial cells; test: Immunofluorescence of actin cytoskeleton rearrangement in A1N4 cells; assay type: cell-based
Method: FIG. 23 Immunofluorescence of actin rearrangement and activated matriptase following LPA and SIP stimulation.
Immunofluorescence: Cells were fixed with 2% paraformaldehyde for 10 min. The two-chain form matriptase was detected with mAb M69 and total matriptase was detected with mAb M32 for 1 hr at room temperature. This was followed by an 1 hr incubation with 1:200 dilution of FITC-conjugated goat anti-mouse (Jackson Immunoresearch, PA). Cells were viewed on a Zeiss microscope, and photographed with Kodak film.

[3] = tested on: mRNA levels for matriptase or HAI-1; test: mRNA levels in estrogen-depleted MCF-7 cells after hormone treatment; assay type: cell-based, human; settings: data not shown
Method: Northern blotting—Total RNA was extracted from cell lines with RNAzol reagent (Tel-Test, Inc., Friendswood, Tex.) according to the manufacturer's instructions. Ten micrograms of total RNA from each cell line was resolved by electrophoresis on a 1.2% phosphate-buffered agarose gel containing 2M formaldehyde. RNA was subsequently transferred to hybond-N nylon membranes (Amersham Pharmacia Biotech, Buckinghamshire, England) and hybridized to ^32P-labeled riboprobes at 65° C. for 36 hours, followed by three washes in 0.1×SSC/0.1%SDS at 80° C. for 30 minutes each to remove unbound probe. To generate the labeled riboprobes, the coding sequences of Matriptase and HAI-1 were cloned into the pcDNA3.1 vector (Invitrogen, San Diego, Calif.), and were linearized with an appropriate restriction enzyme just 5′ of the coding sequences. These linearized vectors were used in in vitro SP6 RNA polymerase reactions with ^32P-UTP (3000 Ci/mmol, NEN, Boston, Mass.) to generate labeled antisense riboprobes. To control for approximately equal loading of RNA from each cell line, labeled riboprobes directed against the message of the ribosomal protein 36B4 were generated in a similar fashion, except that a vector containing approximately 500 bp of the coding sequence was used. […]

[4] = molecular target: T1, matriptase (Homo sapiens, UniProt Q9Y5Y6); test: Proteolytic activity assay (cleavage rate of fluorescent substrate BOC-Gln-Ala-Arg-AMC); assay type: biochemical; settings: pH 8.0, 37° C.
T1 construct: separated into two groups of polypeptides with apparent sizes of 45-kDa (A chain) and 25-kDa (B chain); from tissue; host or cells: human milk
T1 sequence (Q9Y5Y6 190-614 limits assumed): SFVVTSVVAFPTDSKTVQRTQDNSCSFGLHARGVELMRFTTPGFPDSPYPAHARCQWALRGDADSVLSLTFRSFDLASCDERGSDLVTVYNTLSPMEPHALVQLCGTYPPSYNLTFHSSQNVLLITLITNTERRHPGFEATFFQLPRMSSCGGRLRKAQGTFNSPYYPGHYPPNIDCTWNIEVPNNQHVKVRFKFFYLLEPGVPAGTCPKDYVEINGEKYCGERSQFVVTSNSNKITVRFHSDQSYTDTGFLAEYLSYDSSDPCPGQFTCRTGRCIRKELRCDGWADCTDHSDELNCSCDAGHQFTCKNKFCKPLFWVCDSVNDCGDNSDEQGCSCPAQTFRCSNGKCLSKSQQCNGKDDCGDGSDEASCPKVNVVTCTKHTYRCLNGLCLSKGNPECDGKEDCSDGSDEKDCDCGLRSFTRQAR
T1 sequence (Q9Y5Y6 615-854 limits assumed): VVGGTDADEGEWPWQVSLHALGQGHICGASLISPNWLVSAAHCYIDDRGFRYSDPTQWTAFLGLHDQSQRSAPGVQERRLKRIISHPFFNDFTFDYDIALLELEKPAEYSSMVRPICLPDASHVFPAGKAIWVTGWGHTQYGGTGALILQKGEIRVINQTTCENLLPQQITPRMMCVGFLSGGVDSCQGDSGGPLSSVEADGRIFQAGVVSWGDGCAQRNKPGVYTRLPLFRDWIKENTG
Method: (§2) FIG. 11 Inhibition of matriptase by HAI-1. Matriptase and HAI-1 were isolated from human milk by anti-matriptase mAb 21-9 immunoaffinity chromatography, as described previously, and were maintained in an uncomplexed status in elution buffer, 0.1 M glycine, pH 2.4.
[…] Louis), as a substrate. The rate of cleavage was determined with a fluorescence spectrophotometer (Hitachi, F-4500).

[5] = molecular target: T1, matriptase; test: Gelatin zymography of matriptase and matriptase/HAI-1 complex; assay type: biochemical; settings: 1 mg/ml gelatin zymogram
Description: as §2

[6] = molecular target: T1, matriptase; test: Binding of HAI-1 to matriptase (95-kDa complex formation, immunoblot with mAb 21-9)
Method: as §2, §1

With `CCCCCCCCCCCCC/C=C/[C@@H](O)[C@@H](N)COP(=O)(O)O` [S1P, shingosine 1-phosphate] the “induction of matriptase activation (two-chain form)” value (“induction of matriptase activation” below) [1] was “could mimic serum and LDL induced activation of matriptase”, the “potency in inducing the activation of matriptase relative to LPA” value ([1]; S1P versus LPA) was 100 fold and the “time at which activation of matriptase started after addition” value ([1]; after S1P addition) was no more than 5 min. For the same molecule, the “time to maximal activation of matriptase” value ([1]; after S1P addition) was no more than 10 min, the “concentration at which maximal activation of matriptase was achieved” value (“concentration” below) [1] was 1 ng/mL and the “concentration” value ([1]; molar value in brackets) was 2.6 nM. The “actin cytoskeleton rearrangement (stress-fiber formation)” value [2] was “induced actin cytoskelaton reorganization”.

For lysophosphatidic acid [LPA], the “induction of matriptase activation” value [1] was “could mimic serum and LDL induced activation of matriptase”, the “concentration” value [1] was 1000 ng/mL and the “actin cytoskeleton rearrangement (stress-fiber formation)” value [2] was “induced actin cytoskelaton reorganization”.

For `CC(=O)[C@H]1CC[C@H]2[C@@H]3CCC4=CC(=O)CC[C@]4(C)[C@H]3CC[C@]12C` [progesterone], the “change in mRNA levels for matriptase or HAI-1” value ([3]; 100 nM 17β-estradiol plus 100 nM progesterone) was “no change”.

In the case of `C[C@]12CC[C@@H]3c4ccc(O)cc4CC[C@H]3[C@@H]1CC[C@@H]2O` [17β-estradiol], the “change in mRNA levels for matriptase or HAI-1” value ([3]; 100 nM 17β-estradiol) is reported as “no change”.

In the case of `C=C1[C@@H](C)[C@H]2[C@H](Cc3ccccc3)NC(=O)[C@]23[C@H](OC(C)=O)/C=C/[C@@](C)(O)C(=O)[C@@H](C)C/C=C/[C@H]3[C@@H]1O` [cytochalasin D], the “block of S1P-induced activation of matriptase” value ([1]; pretreatment of cells before S1P) is reported as “failed to block the activation of matriptase by S1P”.

Ceramide1-P was tested, and the “induction of matriptase activation” value [1] was “induced the activation of matriptase although at higher concentration than S1P”.

B1: HAI-1: type-1, integral membrane, Kunitz-type serine protease inhibitor, cognate inhibitor of matriptase (protein, UniProt O43278 36-529, looked up)
Kunitz-type protease …: GPPPAPPGLPAGADCLNSFTAGVPGFVLDTNASVSNGATFLESPTVRRGWDCVRACCTTQNCNLALVELQPDRGEDAIAACFLINCLYEQNFVCKFAPREGFINYLTREVYRSYRQLRTQGFGGSGIPKAWAGIDLKVQPQEPLVLKDVENTDWRLLRGDTDVRVERKDPNQVELWGLKEGTYLFQLTVTSSDHPEDTANVTVTVLSTKQTEDYCLASNKVGRCRGSFPRWYYDPTEQICKSFVYGGCLGNKNNYLREEECILACRGVQGGPLRGSSGAQATFPQGPSMERRHPVCSGTCQPTQFRCSNGCCIDSFLECDDTPNCPDASDEAACEKYTSGFDELQRIHFPSDKGHCVDLPDTGLCKESIPRWYYNPFSEHCARFTYGGCYGNKNNFEEEQQCLESCRGISKKDVFGLRREIPIPSTGSVEMAVAVFLVICIVVVVAILGYCFFKNQRKDFHGHHHHPPPTPASSTVSTTEDTEHLVYNHTTRPL
For B1, the “rate of cleavage of synthetic fluorescent substrate by matriptase after HAI-1 binding” value [4] was “drastically decreased”, the “gelatinolytic activity of the 95-kDa matriptase/HAI-1 complex” value [5] was “only trace amounts of gelatinolytic activity” and the “incubation time after which uncomplexed matriptase was undetectable by immunoblot” value ([6]; pH 8.0, 37° C.) was 30 min. For the same molecule, the “formation of 95-kDa matriptase/HAI-1 complex” value ([6]; pH raised to 8.0, 37° C.) was “rapidly occurred”.
